Consider 20 compounds from patent USRE47689E1, “Compounds for treating spinal muscular atrophy” (PTC Therapeutics, Inc., priority 2011, dated 2019).

Like-named read-outs stand apart in the source and are kept apart here.

The test system of series [1] is SMN2 minigene (full length SMN2 minigene mRNA containing SMN2 exon 7). The experiment in a line: SMN2 minigene mRNA splicing RT-qPCR assay in cultured cells. Type of series: cell-based, human. The conditions noted are these: Homo sapiens, HEK293-H, read-out: EC1.5x for production of full length SMN2 mRNA. The essentials: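 Read-out: full-length (exon 7-included) SMN2 minigene mRNA by multiplex RT-qPCR with GAPDH, efficiency-corrected (1+E)^−Ct, GAPDH-normalized and divided by vehicle. Stably transfected HEK293H cells, 24 h compound exposure, duplicates per concentration. Value is EC1.5x, reported as star ranges.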

For series [2], the system named is Smn protein. The experiment in a line: Smn protein assay in cultured cells (SMN HTRF). The series is classed as cell-based, human. The note with it: 48 hours; for EC1.5x (concentration giving 1.5-fold Smn protein increase): SMA Type 1 patient fibroblast cells (GM03813), 7-point concentration curve, SMN HTRF, concentration producing 1.5 times Smn protein vs DMSO vehicle control, read-out: EC1.5x for Smn protein expression; for maximum fold (Fold) increase of Smn protein: SMA patient fibroblast cells, 7-point concentration data, fold increase relative to vehicle control (SMN HTRF). The essentials:
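Lysates in RIPA with protease inhibitors are incubated overnight at room temperature with HTRF anti-SMN antibodies. EC1.5x is derived from fold increase in ΔF over vehicle.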
On the technique in general: Time-resolved FRET reads energy transfer from a long-lived donor to a nearby acceptor.

[3] abbreviates: HEK293H cells stably transfected with SMN2-A minigene, 24 hours, 7-point concentration curve, 1.5-fold relative to vehicle-treated cells.

The melting point is the temperature of the solid-liquid transition. `Cc1cn2cc(-c3cc4ccc(N5CC[C@H](CN)C5)cc4oc3=O)nc2c(C)n1` [Compound 950, 7-[(3R)-3-(aminomethyl)pyrrolidin-1-yl]-3-(6,8-dimethylimidazo[1,2-a]pyrazin-2-yl)-2H-chromen-2-one]: the melting point was 196 to 198 °C. In addition, in series [1] (setting [3]), the EC (1.5-fold) lay in the range of 0.1 to 0.3 µM. In addition, in series [2], the EC1.5x (concentration giving 1.5-fold Smn protein increase) was 1000 to 3000 nM; the “maximum fold (Fold) increase of Smn protein” value (“maximum fold (Fold) increase” below) was “*** (fold increase between >1.35 and ≤1.5)”.

In turn, `Cc1ccn2cc(-c3cc4ccc(N5CCN(C)[C@@H](C)C5)cc4oc3=O)nc2c1` [Compound 379, 7-[(3S)-3,4-dimethylpiperazin-1-yl]-3-(7-methylimidazo[1,2-a]pyridin-2-yl)-2H-chromen-2-one] had a melting point of 231 to 241 °C. In addition, the EC (1.5-fold) in series [1] (setting [3]) was in the range of 0.3 to 1 µM. Further, the “maximum fold (Fold) increase” value in series [2] is “*** (fold increase between >1.35 and ≤1.5)”.

The compound `CN(CCO)Cc1ccc2cc(-c3cn4ccsc4n3)c(=O)oc2c1` [Compound 345, 7-{[(2-hydroxyethyl)(methyl)amino]methyl}-3-(imidazo[2,1-b][1,3]thiazol-6-yl)-2H-chromen-2-one] showed a melting point of 145 to 148 °C. For the same compound, the EC (1.5-fold) in series [1] (setting [3]) fell in the range of 1 to 3 µM. In series [2], the EC1.5x (concentration giving 1.5-fold Smn protein increase) fell in the range of 3000 to 10000 nM; the “maximum fold (Fold) increase” value is “*** (fold increase between >1.35 and ≤1.5)”.

In the case of `Cc1cn2cc(-c3cc4ccc(N5C[C@@H]6CCN(C)[C@@H]6C5)cc4oc3=O)nc2c(C)n1` [Compound 706, 3-(6,8-dimethylimidazo[1,2-a]pyrazin-2-yl)-7-[(3aS,6aS)-1-methylhexahydropyrrolo[3,4-b]pyrrol-5(1H)-yl]-2H-chromen-2-one], the melting point lay within 252 to 262 °C. Also, in series [1] (setting [3]), the EC (1.5-fold) is below 0.1 µM. In series [2], the EC1.5x (concentration giving 1.5-fold Smn protein increase) was in the range of 300 to 1000 nM; the “maximum fold (Fold) increase” value is “**** (fold increase between >1.5 and ≤1.65)”.

As for `Cc1cn2cc(-c3cc4ccc(CCCCN5CCC[C@@H]5CO)cc4oc3=O)nc2c(C)n1` [Compound 904, 3-(6,8-dimethylimidazo[1,2-a]pyrazin-2-yl)-7-{4-[(2R)-2-(hydroxymethyl)pyrrolidin-1-yl]butyl}-2H-chromen-2-one], the melting point is 147 to 151 °C. The EC (1.5-fold) in series [1] (setting [3]) was 0.1 to 0.3 µM. In addition, in series [2], the EC1.5x (concentration giving 1.5-fold Smn protein increase) was in the range of 300 to 1000 nM; the “maximum fold (Fold) increase” value was “**** (fold increase between >1.5 and ≤1.65)”.

`Cc1cn2cc(-c3cc4ccc(NC5C[C@H]6CCC[C@@H](C5)N6C)cc4oc3=O)cc2c(C)n1` (stereo partly drawn) [Compound 728, 3-(1,3-dimethylpyrrolo[1,2-a]pyrazin-7-yl)-7-{[(1R,5S)-9-methyl-9-azabicyclo[3.3.1]non-3-yl]amino}-2H-chromen-2-one] displayed a melting point of 235 to 238 °C. The EC (1.5-fold) in series [1] (24 h) fell in the range of 0.3 to 1 µM. Further, the “maximum fold (Fold) increase” value in series [2] was “* (maximum fold increase of ≤1.2)”.

In the case of `CN1CCCN(c2cc(F)c3cc(-c4cc(F)cc(F)c4)c(=O)oc3c2)CC1` [Compound 365, 3-(3,5-difluorophenyl)-5-fluoro-7-(4-methyl-1,4-diazepan-1-yl)-2H-chromen-2-one], the melting point was in the range of 161 to 164 °C. The EC (1.5-fold) in series [1] (setting [3]) was 1 to 3 µM. In addition, the “maximum fold (Fold) increase” value in series [2] is reported as “* (maximum fold increase of ≤1.2)”.

In the case of `O=c1oc2cc(N3CCCNCC3)ccc2cc1-c1cn2ccsc2n1` [Compound 206, 7-(1,4-diazepan-1-yl)-3-(imidazo[2,1-b][1,3]thiazol-6-yl)-2H-chromen-2-one], the melting point lay in the range of 225 to 230 °C. In addition, the EC (1.5-fold) in series [1] (setting [3]) was in the range of 0.3 to 1 µM. In addition, the “maximum fold (Fold) increase” value in series [2] is “** (fold increase between >1.2 and ≤1.35)”.

`CCN1C[C@@H]2CN(c3ccc4cc(-c5cn6cc(C)nc(C)c6n5)c(=O)oc4c3)C[C@@H]2C1` [Compound 747, 3-(6,8-dimethylimidazo[1,2-a]pyrazin-2-yl)-7-[(3aR,6aS)-5-ethylhexahydropyrrolo[3,4-c]pyrrol-2(1H)-yl]-2H-chromen-2-one] came in with a melting point of 231 to 237 °C. For the same compound, the EC (1.5-fold) in series [1] (setting [3]) was below 0.1 µM. In addition, in series [2], the EC1.5x (concentration giving 1.5-fold Smn protein increase) was below 300 nM and the “maximum fold (Fold) increase” value was “***** (fold increase >1.65)”.

In the case of `Cc1cn2cc(-c3cc4ccc(N5CCC(NC(CO)CO)CC5)cc4oc3=O)nc2c(C)n1` [Compound 929, 7-{4-[(1,3-dihydroxypropan-2-yl)amino]piperidin-1-yl}-3-(6,8-dimethylimidazo[1,2-a]pyrazin-2-yl)-2H-chromen-2-one], the melting point was in the range of 251 to 256 °C. Also, the EC (1.5-fold) in series [1] (setting [3]) was below 0.1 µM. Moreover, in series [2], the EC1.5x (concentration giving 1.5-fold Smn protein increase) lay within 1000 to 3000 nM; the “maximum fold (Fold) increase” value was “*** (fold increase between >1.35 and ≤1.5)”.

For the compound `Cc1cn2cc(-c3cc4ccc(N5CC[C@H](N(C)C)C5)cc4oc3=O)nc2c(C)n1` [Compound 691, 7-[(3S)-3-(dimethylamino)pyrrolidin-1-yl]-3-(6,8-dimethylimidazo[1,2-a]pyrazin-2-yl)-2H-chromen-2-one], the melting point is 244 to 246 °C. Also, the EC (1.5-fold) in series [1] (setting [3]) is below 0.1 µM. In addition, in series [2], the EC1.5x (concentration giving 1.5-fold Smn protein increase) is below 300 nM; the “maximum fold (Fold) increase” value was “**** (fold increase between >1.5 and ≤1.65)”.

`Cc1ccn2cc(-c3cc4ccc(N5CC6CCC5CN6)cc4oc3=O)nc2c1` (stereo not drawn) [Compound 597, 7-(2,5-diazabicyclo[2.2.2]oct-2-yl)-3-(7-methylimidazo[1,2-a]pyridin-2-yl)-2H-chromen-2-one] returned a melting point of 196 to 215 °C. The EC (1.5-fold) in series [1] (setting [3]) was below 0.1 µM. In series [2], the EC1.5x (concentration giving 1.5-fold Smn protein increase) is below 300 nM; the “maximum fold (Fold) increase” value is “**** (fold increase between >1.5 and ≤1.65)”.

On to `Cc1nccn2cc(-c3cc4ccc(N5C[C@@H](C)N[C@@H](C)C5)cc4oc3=O)cc12` [Compound 554, 7-[(3R,5S)-3,5-dimethylpiperazin-1-yl]-3-(1-methylpyrrolo[1,2-a]pyrazin-7-yl)-2H-chromen-2-one], for which the melting point was 200 to 203 °C. Further, in series [1] (setting [3]), the EC (1.5-fold) is below 0.1 µM. Besides, in series [2], the EC1.5x (concentration giving 1.5-fold Smn protein increase) was below 300 nM and the “maximum fold (Fold) increase” value is “***** (fold increase >1.65)”.

The compound `O=c1oc2cc(N3CCNCC3)ccc2cc1-c1ccc2c(c1)OCO2` [Compound 486, 3-(1,3-benzodioxol-5-yl)-7-(piperazin-1-yl)-2H-chromen-2-one] yielded a melting point of 218 to 220 °C. Besides, in series [1] (setting [3]), the EC (1.5-fold) fell in the range of 3 to 30 µM. Also, the “maximum fold (Fold) increase” value in series [2] is recorded as “* (maximum fold increase of ≤1.2)”.

Regarding `Cc1cn2cc(-c3cc4ccc(CCCNCC5CCCO5)cc4oc3=O)nc2c(C)n1` (stereo not drawn) [Compound 932, 3-(6,8-dimethylimidazo[1,2-a]pyrazin-2-yl)-7-{3-[(tetrahydrofuran-2-ylmethyl)amino]propyl}-2H-chromen-2-one], the melting point fell in the range of 147 to 150 °C. For the same compound, the EC (1.5-fold) in series [1] (setting [3]) was below 0.1 µM. In series [2], the EC1.5x (concentration giving 1.5-fold Smn protein increase) was below 300 nM; the “maximum fold (Fold) increase” value is “**** (fold increase between >1.5 and ≤1.65)”.

Consider `Cn1cc2cc(-c3cc4ccc(C5CCNCC5)cc4oc3=O)ccc2n1` [Compound 856, 3-(2-methyl-2H-indazol-5-yl)-7-(piperidin-4-yl)-2H-chromen-2-one], for which the melting point was 232 to 238 °C. Also, in series [1] (setting [3]), the EC (1.5-fold) was below 0.1 µM. Also, in series [2], the EC1.5x (concentration giving 1.5-fold Smn protein increase) is below 300 nM and the “maximum fold (Fold) increase” value is on record as “***** (fold increase >1.65)”.

Compound `CC(C)NCc1ccc2cc(-c3nc4c(C(F)(F)F)cccc4s3)c(=O)oc2c1` [Compound 9, 7-[(propan-2-ylamino)methyl]-3-[4-(trifluoromethyl)-1,3-benzothiazol-2-yl]-2H-chromen-2-one] displayed a melting point of 191 to 196 °C. For the same compound, in series [1] (setting [3]), the EC (1.5-fold) was 3 to 30 µM. Also, in series [2], the “maximum fold (Fold) increase” value was “* (maximum fold increase of ≤1.2)”.

On to `COc1ccc(-c2cc3c(F)cc(N4CCCN(C)CC4)cc3oc2=O)cc1OC` [Compound 406, 3-(3,4-dimethoxyphenyl)-5-fluoro-7-(4-methyl-1,4-diazepan-1-yl)-2H-chromen-2-one], for which the melting point lay in the range of 134 to 140 °C. Further, in series [1] (setting [3]), the EC (1.5-fold) fell in the range of 3 to 30 µM. Moreover, the “maximum fold (Fold) increase” value in series [2] is listed as “* (maximum fold increase of ≤1.2)”.

In the case of `CN1CCN(c2ccc3cc(-c4nc(-c5ccccc5)cs4)c(=O)oc3c2)CC1` [Compound 45, 7-(4-methylpiperazin-1-yl)-3-(4-phenyl-1,3-thiazol-2-yl)-2H-chromen-2-one], the melting point is 205 to 210 °C. Further, in series [1] (setting [3]), the EC (1.5-fold) lay in the range of 3 to 30 µM. In series [2], the “maximum fold (Fold) increase” value is listed as “* (maximum fold increase of ≤1.2)”.

`Cc1ccn2cc(-c3cc4ccc(N5CCCN(C)CC5)cc4oc3=O)nc2n1` [Compound 227, 7-(4-methyl-1,4-diazepan-1-yl)-3-(7-methylimidazo[1,2-a]pyrimidin-2-yl)-2H-chromen-2-one]: the melting point lay in the range of 232 to 236 °C. The EC (1.5-fold) in series [1] (setting [3]) was in the range of 0.1 to 0.3 µM. For the same compound, in series [2], the EC1.5x (concentration giving 1.5-fold Smn protein increase) was 3000 to 10000 nM; the “maximum fold (Fold) increase” value is “*** (fold increase between >1.35 and ≤1.5)”.
